Measurements published in patent US20010027175A1, “Use of certain drugs for treating nerve root injury” (priority 1998, published 2001).

Columns and labels:
[1] = target: inducible nitrogen oxide synthetase (Homo sapiens, UniProt P35228); conditions: by inhibiting inducible nitrogen oxide synthetase; cited from earlier work
[2] = system: nucleus pulposus-induced reduction of nerve root conduction velocity (sacrococcygeal cauda equina); experiment: Series-2: nerve root conduction velocity three days after autologous nucleus pulposus application to the cauda equina; type: in vivo; conditions: pig, mean ± SD
Description: Series-2: Nucleus pulposus was harvested from lumbar discs and applied to the sacrococcygeal cauda equina in 13 pigs autologously. […] Three days after the application the nerve root conduction velocity was determined over the application zone by local electrical stimulation.
Thirteen pigs, (body weight 25-30 kg) received an intramuscular injection of 20 mg/kg body weight of Ketala (ketamine 50 mg/ml, Parke-Davis, Morris Plains, N.J.) and an intravenous injection of 4 mg/kg body weight of Hypnodil^R (methomidate chloride 50 mg/ml, AB Leo, Helsingborg, Sweden) and 0.I mg/kg body weight of Stresnil^R (azaperon 2 mg/ml, Janssen Pharmaceutica, Beerse, Belgium). […]
Three days after the application, the pigs were reanaesthetized by an intramuscular injection of 20 mg/kg body weight of Ketalar^R and an intravenous injection of 35 mg/kg body weight of Pentothal^R (Thiopental sodium, Abbott lab, Chicago, Ill.). […] Local tissue temperature was continuously monitored and maintained at 37.5-38.0° C. by means of a heating lamp. […]
The person performing the neurophysiologic analyses was unaware of the experimental protocol for the individual animal, and after finishing the complete study the data were arranged in the three experimental groups and statistical differences between the groups were assessed by Student's t-test. […]

[3] = system: nucleus pulposus-related effects on adjacent nerve roots; conditions: literature refs 38, 2, 3, 69; cited from earlier work
[4] = system: nucleus pulposus-induced reduction of nerve root conduction velocity (sacrococcygeal cauda equina); experiment: Series-3: nerve root conduction velocity seven days after autologous nucleus pulposus application to the cauda equina; type: in vivo; conditions: pig; for NCV (m/s ± SD): seven days after nucleus pulposus application, mean ± SD; for block of nucleus pulposus induced nerve injury (in words): seven days, systemic treatment
Description: Series-3: Thirteen pigs had autologous nucleus pulposus placed onto their sacrococcygeal cauda equina similar to series-2. Five pigs (bodyweight 25 kg) received Remicade^R (infliximab) 100 mg i.v. preoperatively, and 8 pigs received EnbrelR (etanercept) 12.5 mg s.c. preoperatively and additionally 12.5 mg s.c. three days after the operation. Seven days after the nucleus pulposus-application the nerve root conduction velocity was determined over the application zone by local electrical stimulation according to series-2. Five pigs (bodyweight 25 kg) received the human/murine monoclonal antibody Remicade^R (infliximab, […]) 100 mg i.v. preoperatively, and 8 pigs received Enbrel^R (etanercept, […]) 12.5 mg s.c. preoperatively and additionally 12.5 mg s.c. three days after the operation. Seven days after the nucleus pulposus-application the nerve root conduction velocity was determined over the application zone by local electrical stimulation according to series-2. […] No non-treated animals were included in the series-3 due to the pre-existing knowledge of nerve conduction velocity after seven days of either nucleus pulposus or fat (control) application. The statistical difference between the groups, infliximab, and etanercept, nucleus pulposus without treatment (positive control from previous data) and application of retroperitoneal fat (negative control from previous data) was assessed by using ANOVA and Fisher's PLSD at 5%.

Sequence of inducible nitrogen oxide synthetase (P35228 whole entry): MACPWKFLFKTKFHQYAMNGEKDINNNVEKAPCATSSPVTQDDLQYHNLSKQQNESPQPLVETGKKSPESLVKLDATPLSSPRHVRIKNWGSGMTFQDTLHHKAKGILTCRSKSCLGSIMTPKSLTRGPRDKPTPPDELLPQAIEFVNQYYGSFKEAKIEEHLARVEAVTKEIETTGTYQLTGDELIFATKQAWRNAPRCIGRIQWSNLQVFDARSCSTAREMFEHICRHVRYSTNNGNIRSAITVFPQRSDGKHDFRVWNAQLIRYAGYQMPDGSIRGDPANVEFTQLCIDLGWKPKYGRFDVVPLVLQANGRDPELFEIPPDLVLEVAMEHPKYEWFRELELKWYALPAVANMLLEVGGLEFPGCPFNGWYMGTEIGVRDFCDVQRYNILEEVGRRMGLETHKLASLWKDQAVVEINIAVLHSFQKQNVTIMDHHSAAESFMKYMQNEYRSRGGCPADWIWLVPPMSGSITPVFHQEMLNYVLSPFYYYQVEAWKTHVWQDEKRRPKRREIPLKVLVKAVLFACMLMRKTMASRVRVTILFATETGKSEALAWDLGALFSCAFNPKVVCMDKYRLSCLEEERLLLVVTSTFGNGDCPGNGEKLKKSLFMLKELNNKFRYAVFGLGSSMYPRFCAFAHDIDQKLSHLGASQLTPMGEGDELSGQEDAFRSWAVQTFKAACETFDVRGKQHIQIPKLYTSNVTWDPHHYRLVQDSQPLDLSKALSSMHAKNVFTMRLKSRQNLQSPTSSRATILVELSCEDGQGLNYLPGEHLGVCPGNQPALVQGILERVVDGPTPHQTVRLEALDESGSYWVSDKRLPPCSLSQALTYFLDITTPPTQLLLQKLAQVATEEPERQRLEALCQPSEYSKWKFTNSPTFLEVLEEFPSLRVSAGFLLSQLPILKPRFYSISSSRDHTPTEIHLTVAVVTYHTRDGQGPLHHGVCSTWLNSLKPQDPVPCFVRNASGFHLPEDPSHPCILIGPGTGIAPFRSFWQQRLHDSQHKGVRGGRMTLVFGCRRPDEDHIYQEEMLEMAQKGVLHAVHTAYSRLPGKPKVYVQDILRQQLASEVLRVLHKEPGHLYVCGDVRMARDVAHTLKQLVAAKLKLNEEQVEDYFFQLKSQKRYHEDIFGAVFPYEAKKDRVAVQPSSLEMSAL

N=C(N)NN [Aminoguanidine]
inhibition of release of nitrogen oxide (NO) at nerve root injuries (in words) [1]: inhibit the release of nitrogen oxide (NO)

C[C@H]1c2cccc(O)c2C(=O)C2=C(O)[C@]3(O)C(=O)C(C(N)=O)=C(O)[C@@H](N(C)C)[C@@H]3[C@@H](O)[C@@H]21 [Doxycycline, doxycycline]
NCV (m/s ± SD) [2]: 76 ± 9 m/s

COc1ccc2c(c1)c(CC(=O)O)c(C)n2C(=O)c1ccc(Cl)cc1 [indomethacin]
block of nucleus pulposus-related effects (in words) [3]: slightly less efficiently

CCN(CC)CC(=O)Nc1c(C)cccc1C [lidocaine]
block of nucleus pulposus-related effects (in words) [3]: slightly less efficiently

cyclosporin A
block of nucleus pulposus-related effects (in words) [3]: blocked efficiently

etanercept [Embrel^R]
NCV (m/s ± SD) [4]: 78 ± 14 m/s | block of nucleus pulposus induced nerve injury (in words) [4]: blocked the nucleus pulposus induced nerve injury efficiently

infliximab [Remicade^R]
NCV (m/s ± SD) [4]: 79 ± 15 m/s | block of nucleus pulposus induced nerve injury (in words) [4]: blocked the nucleus pulposus induced nerve injury efficiently
